Assay results: patent US6946459B2, “CRYSTALLINE FORMS OF 1S-[1ALPHA(2S*,3R*), 9ALPHA]6, 10-DIOXO-N-(2-ETHOXY-5-OXO-TETRAHYDRO-3-FURANYL)-9[[(1-ISOQUINOLYL) CARBONYL]AMINO]OCTAHYDRO-6H-PIRIDAZINO[1,2-A][1,2]DIAZEPIN-1-CARBOXAMIDE” (Aventis Pharma S. A., priority 1998, dated 2005)
“Also recorded” adds a separate entry of the source.

Key:
[1] = Sample left 7 days in a chamber at 96% relative humidity (32° C.); assay type: physicochemical; settings: 7 days at 96% relative humidity; for Hygroscopicity (in words): compared with form A
Description: The non-hygroscopicity was confirmed by leaving a sample for 7 days in a chamber at 96% relative humidity (at 32° C.) An absorption of water of approximately 0.15% was observed. […] The same situation pertains regarding the amorphous form.

[2] = Hygroscopicity curve (water sorption isotherm), Dynamic Vapor Sorption DVS 1; assay type: physicochemical; parameters: Sorption / Desorption: unit not given here; settings: for Hygroscopicity (in words): sorption cycle / general statement
Description: Hygroscopicity Curve (or Water Sorption Isotherm)
The water sorption isotherms were obtained using a Dynamic Vapor Sorption DVS 1 device (Surface Measurements System Ltd) at a constant temperature and under a more or less hydrated nitrogen atmosphere. The degree of relative humidity (RH) of the atmosphere was modified in stages. The passage from one stage to the next is carried out when the weight of the sample to be analyzed has reached a constant value.

[3] = RH 0.0 %, water sorption isotherm, constant temperature
[4] = RH 0.0 %, water sorption isotherm, constant temperature, water uptake (%)

For `CCO[C@@H]1OC(=O)C[C@@H]1NC(=O)[C@@H]1CCCN2C(=O)CC[C@H](NC(=O)c3nccc4ccccc34)C(=O)N12` [AMORPHOUS, 1S-[1alpha(2R, 3S), 9alpha]6, 10-dioxo-N-(2-ethoxy-5-oxo-tetrahydro-3-furanyl)-9[[(1-isoquinolyl)carbonyl]amino]octahydro-6H-pyridazino[1,2-a][1, 2]diazepin-1-carboxamide, reference compound], the “Hygroscopicity (in words)” value [1] was “more hygroscopic”, the Desorption [2, 3] was −0.20 and the Sorption [2, 4] was 0.00. The Desorption ([2]; RH 12.0 %) was 1.43, the Sorption ([2]; RH 12.0 %) was 0.67 and the Desorption ([2]; RH 21.0 %) was 2.09. The Sorption ([2]; RH 21.0 %) was 0.97, the Desorption ([2]; RH 32.0 %) was 2.58 and the Sorption ([2]; RH 32.0 %) was 1.29. The Desorption ([2]; RH 43.0 %) was 2.94, the Sorption ([2]; RH 43.0 %) was 1.60 and the Desorption ([2]; RH 51.0 %) was 3.19. For the same molecule, the Sorption ([2]; RH 51.0 %) was 1.83, the Desorption ([2]; RH 57.0 %) was 3.35 and the Sorption ([2]; RH 57.0 %) was 2.03. For the same molecule, the Desorption ([2]; RH 66.0 %) was 3.61, the Sorption ([2]; RH 66.0 %) was 2.37 and the Desorption ([2]; RH 75.0 %) was 3.90. For the same molecule, the Sorption ([2]; RH 75.0 %) was 2.90, the Desorption ([2]; RH 80.0 %) was 4.12 and the Sorption ([2]; RH 80.0 %) was 3.71. It also gave a Desorption ([2]; RH 90.0 %) of 4.94, a Sorption ([2]; RH 90.0 %) of 5.11 and a Desorption ([2]; RH 96.0 %) of 5.93. For the same molecule, the Sorption ([2]; RH 96.0 %) was 5.93 and the “Hygroscopicity (in words)” value ([2]; listed as Compound (I)) was “hygroscopic”.
For `CCO[C@@H]1OC(=O)C[C@@H]1NC(=O)[C@@H]1CCCN2C(=O)CC[C@H](NC(=O)c3nccc4ccccc34)C(=O)N12` [form A], the Absorption of water [1] was “approximately 0.15%”, the Desorption [2, 3] was 0.11 and the Sorption [2, 4] was 0.00. For the same molecule, the Desorption ([2]; RH 12.0 %) was 0.12, the Sorption ([2]; RH 12.0 %) was 0.03 and the Desorption ([2]; RH 21.0 %) was 0.14. It also gave a Sorption ([2]; RH 21.0 %) of 0.05, a Desorption ([2]; RH 32.0 %) of 0.19 and a Sorption ([2]; RH 32.0 %) of 0.07. It also gave a Desorption ([2]; RH 43.0 %) of 0.21, a Sorption ([2]; RH 43.0 %) of 0.09 and a Desorption ([2]; RH 51.0 %) of 0.22. For the same molecule, the Sorption ([2]; RH 51.0 %) was 0.11, the Desorption ([2]; RH 57.0 %) was 0.21 and the Sorption ([2]; RH 57.0 %) was 0.13. The Desorption ([2]; RH 66.0 %) was 0.21, the Sorption ([2]; RH 66.0 %) was 0.14 and the Desorption ([2]; RH 75.0 %) was 0.21. The Sorption ([2]; RH 75.0 %) was 0.14, the Desorption ([2]; RH 80.0 %) was 0.21 and the Sorption ([2]; RH 80.0 %) was 0.16. It also gave a Desorption ([2]; RH 90.0 %) of 0.19, a Sorption ([2]; RH 90.0 %) of 0.14 and a Desorption ([2]; RH 96.0 %) of 0.06. For the same molecule, the Sorption ([2]; RH 96.0 %) was 0.06, the “Hygroscopicity (in words)” value [2] was “absence of hygroscopicity; also recorded: not hygroscopic” and the “Water uptake during the sorption cycle” value ([2]; whole sorption cycle, RH 0 to 96 %) was < 0.2%.
In the case of `CCO[C@@H]1OC(=O)C[C@@H]1NC(=O)[C@@H]1CCCN2C(=O)CC[C@H](NC(=O)c3nccc4ccccc34)C(=O)N12` [form B, 1S-[1alpha (2R, 3S), 9alpha]6,10-dioxo-N-(2-ethoxy-5-oxo-tetrahydro-3-furanyl)-9[[(1-isoquinolyl)carbony]amino]octahydro-6H-pyridazino[1,2-a][1,2]diazepin-1-carboxamide], the Absorption of water [1] is reported as 7%, the “Hygroscopicity (in words)” value [1] is reported as “more hygroscopic” and the Desorption [2, 3] is reported as −0.11. The Sorption [2, 4] was 0.00, the Desorption ([2]; RH 12.0 %) was 1.42 and the Sorption ([2]; RH 12.0 %) was 1.41. For the same molecule, the Desorption ([2]; RH 21.0 %) was 2.33, the Sorption ([2]; RH 21.0 %) was 2.36 and the Desorption ([2]; RH 32.0 %) was 3.14. It also gave a Sorption ([2]; RH 32.0 %) of 3.23, a Desorption ([2]; RH 43.0 %) of 3.75 and a Sorption ([2]; RH 43.0 %) of 3.88. It also gave a Desorption ([2]; RH 51.0 %) of 4.13, a Sorption ([2]; RH 51.0 %) of 4.26 and a Desorption ([2]; RH 57.0 %) of 4.40. For the same molecule, the Sorption ([2]; RH 57.0 %) was 4.53, the Desorption ([2]; RH 66.0 %) was 4.75 and the Sorption ([2]; RH 66.0 %) was 4.92. It also gave a Desorption ([2]; RH 75.0 %) of 5.08, a Sorption ([2]; RH 75.0 %) of 5.27 and a Desorption ([2]; RH 80.0 %) of 5.30. The Sorption ([2]; RH 80.0 %) was 5.45, the Desorption ([2]; RH 90.0 %) was 5.96 and the Sorption ([2]; RH 90.0 %) was 5.93. For the same molecule, the Desorption ([2]; RH 96.0 %) was 6.86 and the Sorption ([2]; RH 96.0 %) was 6.86.
